Results reported in patent publication US7361263B2, “Water treatment apparatus and method” (Sanyo Electric Co., Ltd., priority 2002, dated 2008).

Key:
[1] = Ion chromatograph and total nitrogen analysis of electrolyzed amikacin sulfate solution; format: physicochemical; settings: for Nitrogen Concentration Org-N: T-N minus NO3—N, NO2—N, NH4—N
[2] = tested on: Staphylococcus aureus (staphylococcus bacteria) FDA 209P; assay: Test of antibacterial activity of amikacin sulfate (MIC, small amount broth dilution); format: cell-based
Description: (§1) In accordance with the MIC measurement by a small amount broth dilution method which is the standard method of the Japanese Society of Chemotherapy, the antibacterial activity of amikacin sulfate was evaluated. As the culture medium for measuring sensitivity, Cation Supplemented Mueller-Hinton Broth: CSMHB (obtained from EIKEN CHEMICAL CO., LTD.) was employed. This CSMHB was dividedly-poured 90 μl each into a U-shaped bottom 96-well microplate. Samples taken 0, 2, 4 and 6 hours from initiation of electrolysis described in the above 1. were prepared. A diluted solution was prepared in accordance with the standard method for each of these samples. […] The bacilli used in the present example are identical to the two types of bacilli used in Example 1, i.e. Staphylococcus aureus (staphylococcus bacteria) FDA […] and Escherichia coli (coliform bacillus) NIHJ JC-2. A solution including bacillus for inoculation similar to that of Example 1 was prepared. The solution including bacillus was inoculated approximately 0.005 ml each into each well of the plate set forth above within 15 minutes from preparation of the solution including bacillus. In this plate, a medium not containing the agent was poured into 1-2 wells as the control of the growth of the bacillus. Cultivation was conducted for 18 to 24 hours at 35° C. The evaluation method is identical to that employed in Example 1.

[3] = tested on: Escherichia coli (coliform bacillus) NIHJ JC-2; assay: as above; format: cell-based
Description: as §1

[4] = High performance liquid chromatograph analysis of electrolyzed amikacin sulfate solution; format: physicochemical
[5] = 6 hours from initiation of electrolysis

Nitrate nitrogen (NO3—N) share of the total nitrogen (T-N) [1, 5]: approximately 50%
ammonia nitrogen (NH4—N) share of the total nitrogen (T-N) [1, 5]: approximately 50%
Nitrogen Concentration NH4—N ([1]; electrolyzing time 0 hours): 0 mg/L
Nitrogen Concentration NO2—N ([1]; electrolyzing time 0 hours): 0 mg/L
Nitrogen Concentration NO3—N ([1]; electrolyzing time 0 hours): 0.22 mg/L
Nitrogen Concentration T-N ([1]; electrolyzing time 0 hours): 80.1 mg/L
Nitrogen Concentration Org-N ([1]; electrolyzing time 0 hours): 79.88 mg/L
Nitrogen Concentration NH4—N ([1]; electrolyzing time 1 hour): 4.18 mg/L
Nitrogen Concentration NO2—N ([1]; electrolyzing time 1 hour): 0 mg/L
Nitrogen Concentration NO3—N ([1]; electrolyzing time 1 hour): 1 mg/L
Nitrogen Concentration Org-N ([1]; electrolyzing time 1 hour): 25.52 mg/L
Nitrogen Concentration NH4—N ([1]; electrolyzing time 2 hours): 9.06 mg/L
Nitrogen Concentration NO2—N ([1]; electrolyzing time 2 hours): 0 mg/L
Nitrogen Concentration NO3—N ([1]; electrolyzing time 2 hours): 2.39 mg/L
Nitrogen Concentration T-N ([1]; electrolyzing time 2 hours): 29.65 mg/L
Nitrogen Concentration Org-N ([1]; electrolyzing time 2 hours): 18.20 mg/L
Nitrogen Concentration NH4—N ([1]; electrolyzing time 3 hours): 10.93 mg/L
Nitrogen Concentration NO2—N ([1]; electrolyzing time 3 hours): 0 mg/L
Nitrogen Concentration NO3—N ([1]; electrolyzing time 3 hours): 4.21 mg/L
Nitrogen Concentration T-N ([1]; electrolyzing time 3 hours): 32.17 mg/L
Nitrogen Concentration Org-N ([1]; electrolyzing time 3 hours): 17.03 mg/L
Nitrogen Concentration NH4—N ([1]; electrolyzing time 4 hours): 13.43 mg/L
Nitrogen Concentration NO2—N ([1]; electrolyzing time 4 hours): 0 mg/L
Nitrogen Concentration NO3—N ([1]; electrolyzing time 4 hours): 8.6 mg/L
Nitrogen Concentration T-N ([1]; electrolyzing time 4 hours): 32.75 mg/L
Nitrogen Concentration Org-N ([1]; electrolyzing time 4 hours): 10.72 mg/L
Nitrogen Concentration NH4—N ([1]; electrolyzing time 5 hours): 16 mg/L
Nitrogen Concentration NO2—N ([1]; electrolyzing time 5 hours): 0 mg/L
Nitrogen Concentration NO3—N ([1]; electrolyzing time 5 hours): 11.82 mg/L
Nitrogen Concentration T-N ([1]; electrolyzing time 5 hours): 33.04 mg/L
Nitrogen Concentration Org-N ([1]; electrolyzing time 5 hours): 5.22 mg/L
Nitrogen Concentration NH4—N ([1]; electrolyzing time 6 hours): 17.84 mg/L
Nitrogen Concentration NO2—N ([1]; electrolyzing time 6 hours): 0 mg/L
Nitrogen Concentration NO3—N ([1]; electrolyzing time 6 hours): 16.94 mg/L
Nitrogen Concentration T-N ([1]; electrolyzing time 6 hours): 32.27 mg/L
Nitrogen Concentration Org-N ([1]; electrolyzing time 6 hours): -2.51 mg/L
minimum inhibitory concentration (MIC) ([2]; electrolyzing time 0 hours): 0.195 µg/mL
relative value of the MIC (MIC at 0 hours set as 1) ([2]; electrolyzing time 0 hours): 1
minimum inhibitory concentration (MIC) ([2]; electrolyzing time 2 hours): 1.56 µg/mL
relative value of the MIC (MIC at 0 hours set as 1) ([2]; electrolyzing time 2 hours): ⅛
minimum inhibitory concentration (MIC) ([2]; electrolyzing time 4 hours): 6.25 µg/mL
relative value of the MIC (MIC at 0 hours set as 1) ([2]; electrolyzing time 4 hours): 1/32
minimum inhibitory concentration (MIC) ([2]; electrolyzing time 6 hours): 100 µg/mL
relative value of the MIC (MIC at 0 hours set as 1) ([2]; electrolyzing time 6 hours): 1/512
minimum inhibitory concentration (MIC) ([3]; 6 hours from initiation of electrolysis, as tested): > 100 µg/mL
minimum inhibitory concentration (MIC) ([3]; electrolyzing time 0 hours): 3.125 µg/mL
relative value of the MIC (MIC at 0 hours set as 1) ([3]; electrolyzing time 0 hours): 1
minimum inhibitory concentration (MIC) ([3]; electrolyzing time 2 hours): 12.5 µg/mL
relative value of the MIC (MIC at 0 hours set as 1) ([3]; electrolyzing time 2 hours): ¼
minimum inhibitory concentration (MIC) ([3]; electrolyzing time 4 hours): 50 µg/mL
relative value of the MIC (MIC at 0 hours set as 1) ([3]; electrolyzing time 4 hours): 1/16
minimum inhibitory concentration (MIC), calculated based on formula (4) ([3]; electrolyzing time 6 hours, calculated): 664 µg/mL
relative value of the MIC (MIC at 0 hours set as 1) ([3]; electrolyzing time 6 hours, from calculated MIC): 1/212
amikacin sulfate decomposed ([4]; 2 hours from initiation of electrolysis): approximately 90%
amikacin sulfate decomposed ([4]; 4 hours and thereafter from initiation of electrolysis): approximately 99%
Concentration of amikacin sulfate ([4]; electrolyzing time 0 hours (taken as 1,000 mg/L)): 1000 µg/mL
Concentration of amikacin sulfate ([4]; electrolyzing time 2 hours, from peak area at retention time 4.2 minutes): 98.579 µg/mL
Concentration of amikacin sulfate ([4]; electrolyzing time 4 hours, from peak area at retention time 4.2 minutes): 15.914 µg/mL
Concentration of amikacin sulfate ([4]; electrolyzing time 6 hours, from peak area at retention time 4.2 minutes): 10.911 µg/mL
Compound: NCC[C@H](O)C(=O)N[C@@H]1C[C@H](N)[C@@H](O[C@H]2O[C@H](CN)[C@@H](O)[C@H](O)[C@H]2O)[C@H](O)[C@H]1O[C@H]1O[C@H](CO)[C@@H](O)[C@H](N)[C@H]1O.O=S(=O)(O)O.O=S(=O)(O)O [amikacin sulfate, Amikacin sulfate]
